Assay results from patent US7612064B2, “Sulfopyrroles” (Takeda Pharmaceutical Company Limited, priority 2003, dated 2009).

What was measured:
[1] = tested on: HeLa; experiment: MTS proliferation assay; assay type: cell-based, human; conditions: 72 h
Summary of the method: (§1)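 Viability read-out is MTS absorbance at 492 nm after 3 h reagent incubation. It follows 72 h culture-condition treatment at four final concentrations (10, 3, 1, 0.3 μM), compounds delivered in medium holding max 5% DMSO.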

[2] = tested on: Jurkat; experiment: MTS proliferation assay; assay type: cell-based, human; conditions: 72 h
Summary of the method: as §1

[3] = tested on: Jily; experiment: MTS proliferation assay; assay type: cell-based; conditions: 72 h
Summary of the method: as §1

[4] = tested on: MRC5; experiment: MTS proliferation assay; assay type: cell-based; conditions: MRC5, 72 h
Summary of the method: as §1

[5] = tested on: HeLa; experiment: PI staining for cell cycle distribution; assay type: cell-based, human; design: key: 0: no effect; 1: weak effect; 2: strong effect; conditions: HeLa 10μM, 48 h
Protocol: (§2) 1-2*10^5 cells are seeded into 24 well tissue culture plates and incubated for 24 h prior to compound addition. […] Adherent cells are harvested by trypsinization. The cell suspensions are fixed by adding 2 parts ice cold ethanol 100% while vortexing. Then the samples are stored for>2 h at −20° C. Subsequently the cells are washed with PBS once and resuspended in 250 μl PBS containing 50 μg/ml PI (Calbiochem # 537059), then the samples are incubated at 37° C. for 30 min and subsequently analyzed on a FACSCalibur™ monitoring linear PI fluorescence activity on FL2. The readout allows the detection of a possible direct or indirect influence of the tested compounds on the cell cycle. The following events can occur: a) Generation of a subG1 peak indicative for DNA fragmentation, b) increase of the cell population arrested in G2M phase. Both events are scored by 1 for weak and 2 for strong occurrence. 0 indicates no occurrence at all.

[6] = tested on: Jurkat; experiment: PI staining for cell cycle distribution; assay type: cell-based, human; design: key: 0: no effect; 1: weak effect; 2: strong effect; conditions: Jurkat 3μM, 48 h
Protocol: as §2

[7] = Hoechst 33342 nuclear staining; assay type: cell-based; conditions: 24 h or 48 h incubation; for Hoechst 33342 nuclear staining score, H460: H460 cells; for Hoechst 33342 nuclear staining score, HeLa: HeLa cells; for Hoechst 33342 nuclear staining score, Jily: Jily cells; for Hoechst 33342 nuclear staining score, Jurkat: Jurkat cells; for Hoechst 33342 nuclear staining score, MRC5: MRC5 cells;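 for all read-outs here: apoptotic nuclei scored 0 none 1 weak under 50% of cells 2 strong over 50% of cells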
Summary of the method: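 Cells were plated in 96 well tissue culture plates in 80 μl complete medium, with 3-5*10^3 cells per well for adherent lines and 8-10*10^3 for suspension lines. Adherent cells spread for 24 h before treatment, while suspension cells were treated right after seeding. Compounds were added in 20 μl complete medium containing max 5% DMSO.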

[8] = conc 0.1 (final concentrations in μM)
[9] = conc 0.3 (final concentrations in μM)
[10] = conc 1 (final concentrations in μM)
[11] = conc 3 (final concentrations in μM)

IC50 [1]: > 1000 nM
IC50 [2]: < 1000 nM
Compound: COc1cc(-c2cc(CNc3ccc(-n4ccnc4)cc3)cn2S(=O)(=O)c2ccc(C)cc2)cc(OC)c1OC [Example 55]
IC50 [3]: > 1000 nM
IC50 [4]: < 1000 nM
PI staining for cell cycle distribution, G2M [5]: 2
PI staining for cell cycle distribution, subG1 [5]: 0
PI staining for cell cycle distribution, G2M [6]: 1
PI staining for cell cycle distribution, subG1 [6]: 0
Hoechst 33342 nuclear staining score, H460 [7, 8]: 0
Hoechst 33342 nuclear staining score, H460 [7, 9]: 0
Hoechst 33342 nuclear staining score, H460 [7, 10]: 0
Hoechst 33342 nuclear staining score, H460 [7, 11]: 2 (strong activity comprising more than 50% of the cells)
Hoechst 33342 nuclear staining score, HeLa [7, 8]: 0
Hoechst 33342 nuclear staining score, HeLa [7, 9]: 0
Hoechst 33342 nuclear staining score, HeLa [7, 10]: 1 (weak activity comprising less than 50% of the cells)
Hoechst 33342 nuclear staining score, HeLa [7, 11]: 2 (strong activity comprising more than 50% of the cells)
Hoechst 33342 nuclear staining score, Jily [7, 8]: 0
Hoechst 33342 nuclear staining score, Jily [7, 9]: 0
Hoechst 33342 nuclear staining score, Jily [7, 10]: 2 (strong activity comprising more than 50% of the cells)
Hoechst 33342 nuclear staining score, Jily [7, 11]: 2 (strong activity comprising more than 50% of the cells)
Hoechst 33342 nuclear staining score, Jurkat [7, 8]: 0
Hoechst 33342 nuclear staining score, Jurkat [7, 9]: 0
Hoechst 33342 nuclear staining score, Jurkat [7, 10]: 2 (strong activity comprising more than 50% of the cells)
Hoechst 33342 nuclear staining score, Jurkat [7, 11]: 2 (strong activity comprising more than 50% of the cells)
Hoechst 33342 nuclear staining score, MRC5 [7, 8]: 0
Hoechst 33342 nuclear staining score, MRC5 [7, 9]: 0
Hoechst 33342 nuclear staining score, MRC5 [7, 10]: 0
Hoechst 33342 nuclear staining score, MRC5 [7, 11]: 1 (weak activity comprising less than 50% of the cells)
Hoechst 33342 nuclear staining score, PBLs [7, 8]: 0
Hoechst 33342 nuclear staining score, PBLs [7, 9]: 0
Hoechst 33342 nuclear staining score, PBLs [7, 10]: 0
Hoechst 33342 nuclear staining score, PBLs [7, 11]: 0
